Measurements reported in patent US10245328B2, “Gadolinium complex comprising DO3A-tranexamic acid conjugate” (KYUNGPOOK NATIONAL UNIVERSITY INDUSTRY-ACADEMIC COOPERATION …, priority 2014, dated 2019).
Entries after “also recorded” stand apart in the source; their conditions may differ.

Columns and labels:
[1] = Relaxation rate measurement (R1, R2) in PBS and in PBS solution of HSA; format: physicochemical; conditions: 293K
Description: T1 measurement is carried out using an inversion recovery method at 1.5 T (64 MHz) in a variable inverse time (TI). MR images are obtained for 35 different TI values in a range of 50 to 1750 ms. A T1 relaxation time is obtained from a nonlinear least-squares fit of a signal strength measured at each TI value. For a T2 CPMG (Carr-Purcell-Meiboon-Gill) pulse sequence measurement, the measurement is adapted to a multi spin-echo measurement. 34 images are obtained at 34 different echo time (TE) values in a range of 10 to 1900 ms. The T2 relaxation time is obtained from a nonlinear least-squares fit of mean pixel values for multi spin-echo measurement at each echo time. Next, a relaxation rate (R1 and R2) is calculated as an inverse of a relaxation time per mM. The determined relaxation time (T1 and T2) and relaxation rate (R1 and R2) are subjected to an image processing to get a relaxation time map and relaxation rate respectively.
For comparison between the complexes 2a-e, there is no noticeable difference in R1's. The measurement is carried out for two different media, that is, PBS (pH=7.4) and PBS solution of HAS in order to indicate which blood-pool effect is expressed by the complexes 2a-e.

[2] = Kinetic stability in various pH ranges (evolution of R1 in PBS); format: physicochemical; conditions: pH 1, [Gd]=1.0 mM in PBS, room temperature
Description: The kinetic stability is expressed as evolution of a water proton relaxation rate (R1) for 2 ([Gd]=1.0 mM) in PBS under various pH conditions (pH: 1, 3, 5, 7, 9 and 11) at a room temperature, as a function of the incubation time. The measurement is executed on a 1.5 T whole body system (GE Healthcare, Milwaukee, Wis., USA).

[3] = Stability against hydrolysis in H2O (HPLC, 197 nm); format: physicochemical; conditions: for HPLC peak 2.31 min, 2b / HPLC peak 27.11 min, 2a (trans) / HPLC peak 30.48 min, 2a (cis) / HPLC peak 52.24 min: 2a in water
Description: The contrast agents of the present series 100 mg are dissolved in distilled water 10 mL and is maintained as they are for 72 hours at 50° C. Using HPLC, O.D. (Optical Density) values are read at 197 nm and the stability of the agents is determined. The substances at each retention time are examined using LC Mass Spectroscopy for accurate identification of decomposed products.

ICR mice = assay: In vivo MR experiment, T1-weighted images after tail vein injection; conditions: 0.1 mmol Gd/kg i.v.
Description: The in vivo experiment is executed with compliance to a regulation of Animal Research Committee of KNU. 29-31 g weight 6-weeks male ICR mice are used. […] The measurement is carried out before and after the injection of the complexes 2a-e through the tail vein. […] After the mice wake from the anesthesia after each measurement, the mice were placed in a cage capable of free access to feed and food. For this measurement, the animals are held at about 37° C. using a warm water blanket. MR images are taken using a 1.5 T MR unit (GE Healthcare, Milwaukee, Wis.) with a manual RF coil for a small animal. The coil may be of a receiver type having a 50 mm inner diameter. […] MR images are collected for 24 h after the injection. Anatomical positions having an improved contrast are set for a liver, a bile duct, and a kidney on (post contrast) MR images. For quantitative measurements, a signal intensity in a region of interest (ROI) is measured using Advantage Window software (GE medical, U.S.). The CNR is calculated using a following equation (1): […] SNR is a […].

[4] = Transmetalation kinetics with ZnCl2, evolution of R1P(t)/R1P(0); format: physicochemical; conditions: 72 h; phosphate buffer pH 7.4, 2.5 mmol/L Gd complex + 2.5 mmol/L ZnCl2, room temperature, 3T
Description: This experiment is prepared using a previous document method (Laurent, S. Elst, L. V.; Copoix, F.; Muller, R. N. Investigative radiology 2001, 36, 115). This is based on measurements of evolution of a water proton longitudinal relaxation rate (R1P) of a buffer solution (phosphate buffer, pH 7.4) containing 2.5 mmol/L gadolinium complex and 2.5 mmol/L ZnCl2. Next, 10 μL ZnCl2 250 mmol/L solution is added to a […] paramagnetic complex buffer solution. The mixture is strongly agitated, and then, 300 μL thereof is taken for a relaxation measurement (relaxometric measurement). […] A R1P relaxation rate is acquired by excluding a diamagnetic contribution of a water proton relaxation from the measured relaxation rate R1=(1/T1). The measurement is performed at a room temperature on a 3T whole body system (Magnetom Tim Trio, Simens, Korea Institute of Radiological & Medical Science).
An evaluation of a normal paramagnetic longitudinal relaxation rate R1P (t)/R1P (0) is observed between the present series 2a-e and comparison examples Dotarem®, Primovist®, Multihance®, and Omniscan® (FIG. 4). The used complex in the test is divided into two following groups based on an evolution pattern: (i) a group employing a macrocyclic chelate (ii) a group employing an acyclic chelate. […]

[5] = PBS solution of 0.67 mM HSA, 64 MHz

Compound: CCOC(=O)C1CCC(CNC(=O)CN2CCN(CC(=O)[O-])CCN(CC(=O)[O-])CCN(CC(=O)[O-])CC2)CC1.[Gd+3] (stereo not drawn) [2a]
- R1 ([1]; PBS pH 7.4, 64 MHz (1.5 T)): 4.84 ± 0.18 mM⁻¹ s⁻¹
- R2 ([1]; PBS pH 7.4, 64 MHz (1.5 T)): 4.91 ± 0.25 mM⁻¹ s⁻¹
- R1 in 0.67 mM HSA [1, 5]: 5.11 ± 0.10 mM⁻¹ s⁻¹
- R2 in 0.67 mM HSA [1, 5]: 6.04 ± 0.13 mM⁻¹ s⁻¹
- kinetic stability (evolution of R1) [2]: sufficient kinetic stability
- hydrolytic stability (in words) ([3]; 100 mg in distilled water 10 mL, 72 hours at 50° C.): hydrolytic stability falls
- HPLC peak 2.31 min, 2b ([3]; 50° C./3 day): 0.72%
- HPLC peak 27.11 min, 2a (trans) ([3]; 50° C./3 day): 97.43%
- HPLC peak 30.48 min, 2a (cis) ([3]; 50° C./3 day): 1.25%
- HPLC peak 52.24 min ([3]; 50° C./3 day): 0.19%
- HPLC peak 2.31 min, 2b ([3]; initial): 0.01%
- HPLC peak 27.11 min, 2a (trans) ([3]; initial): 97.73%
- HPLC peak 30.48 min, 2a (cis) ([3]; initial): 1.89%
- HPLC peak 52.24 min ([3]; initial): 0.04%
- signal enhancement / signal strength at the liver (ICR mice; ICR mice, 1.5 T, initial 1 hour): insufficient to be qualified as the liver-specific contrast agent
- liver-specificity / class of contrast agent (ICR mice; in vivo MR images of mice): exhibits the liver-specificity; also recorded: true liver-specific contrast agent

Compound: CNC[C@H](O)[C@@H](O)[C@H](O)[C@H](O)CO.CNC[C@H](O)[C@@H](O)[C@H](O)[C@H](O)CO.O=C([O-])CN(CCN(CC(=O)[O-])CC(=O)O)CCN(CC(=O)O)C(COCc1ccccc1)C(=O)[O-].[Gd+3] (stereo not drawn) [Multihance, Gd-BOPTA]
- portion of the initial paramagnetic relaxation rate kept, R1P(t)/R1P(0) [4]: 50%

Compound: CCOc1ccc(CC(CN(CCN(CC(=O)[O-])CC(=O)[O-])CC(=O)[O-])N(CC(=O)[O-])CC(=O)[O-])cc1.[Gd+3].[Na+].[Na+] (stereo not drawn) [Primovist, Gd-EOB-DTPA]
- portion of the initial paramagnetic relaxation rate kept, R1P(t)/R1P(0) [4]: 50%
